The test addresses Ryanodine receptor 2 (Mus musculus) (UniProt E9Q401). As to the kind of experiment: Displacement of [3H]ryanodine from ryanodine receptor(ryr) of Mouse brain. (In general: Displacement assays read how much labelled ligand stays bound in the presence of the test substance.)

Ryanodine receptor 2 (Mus musculus), sequence (E9Q401 whole entry, looked up): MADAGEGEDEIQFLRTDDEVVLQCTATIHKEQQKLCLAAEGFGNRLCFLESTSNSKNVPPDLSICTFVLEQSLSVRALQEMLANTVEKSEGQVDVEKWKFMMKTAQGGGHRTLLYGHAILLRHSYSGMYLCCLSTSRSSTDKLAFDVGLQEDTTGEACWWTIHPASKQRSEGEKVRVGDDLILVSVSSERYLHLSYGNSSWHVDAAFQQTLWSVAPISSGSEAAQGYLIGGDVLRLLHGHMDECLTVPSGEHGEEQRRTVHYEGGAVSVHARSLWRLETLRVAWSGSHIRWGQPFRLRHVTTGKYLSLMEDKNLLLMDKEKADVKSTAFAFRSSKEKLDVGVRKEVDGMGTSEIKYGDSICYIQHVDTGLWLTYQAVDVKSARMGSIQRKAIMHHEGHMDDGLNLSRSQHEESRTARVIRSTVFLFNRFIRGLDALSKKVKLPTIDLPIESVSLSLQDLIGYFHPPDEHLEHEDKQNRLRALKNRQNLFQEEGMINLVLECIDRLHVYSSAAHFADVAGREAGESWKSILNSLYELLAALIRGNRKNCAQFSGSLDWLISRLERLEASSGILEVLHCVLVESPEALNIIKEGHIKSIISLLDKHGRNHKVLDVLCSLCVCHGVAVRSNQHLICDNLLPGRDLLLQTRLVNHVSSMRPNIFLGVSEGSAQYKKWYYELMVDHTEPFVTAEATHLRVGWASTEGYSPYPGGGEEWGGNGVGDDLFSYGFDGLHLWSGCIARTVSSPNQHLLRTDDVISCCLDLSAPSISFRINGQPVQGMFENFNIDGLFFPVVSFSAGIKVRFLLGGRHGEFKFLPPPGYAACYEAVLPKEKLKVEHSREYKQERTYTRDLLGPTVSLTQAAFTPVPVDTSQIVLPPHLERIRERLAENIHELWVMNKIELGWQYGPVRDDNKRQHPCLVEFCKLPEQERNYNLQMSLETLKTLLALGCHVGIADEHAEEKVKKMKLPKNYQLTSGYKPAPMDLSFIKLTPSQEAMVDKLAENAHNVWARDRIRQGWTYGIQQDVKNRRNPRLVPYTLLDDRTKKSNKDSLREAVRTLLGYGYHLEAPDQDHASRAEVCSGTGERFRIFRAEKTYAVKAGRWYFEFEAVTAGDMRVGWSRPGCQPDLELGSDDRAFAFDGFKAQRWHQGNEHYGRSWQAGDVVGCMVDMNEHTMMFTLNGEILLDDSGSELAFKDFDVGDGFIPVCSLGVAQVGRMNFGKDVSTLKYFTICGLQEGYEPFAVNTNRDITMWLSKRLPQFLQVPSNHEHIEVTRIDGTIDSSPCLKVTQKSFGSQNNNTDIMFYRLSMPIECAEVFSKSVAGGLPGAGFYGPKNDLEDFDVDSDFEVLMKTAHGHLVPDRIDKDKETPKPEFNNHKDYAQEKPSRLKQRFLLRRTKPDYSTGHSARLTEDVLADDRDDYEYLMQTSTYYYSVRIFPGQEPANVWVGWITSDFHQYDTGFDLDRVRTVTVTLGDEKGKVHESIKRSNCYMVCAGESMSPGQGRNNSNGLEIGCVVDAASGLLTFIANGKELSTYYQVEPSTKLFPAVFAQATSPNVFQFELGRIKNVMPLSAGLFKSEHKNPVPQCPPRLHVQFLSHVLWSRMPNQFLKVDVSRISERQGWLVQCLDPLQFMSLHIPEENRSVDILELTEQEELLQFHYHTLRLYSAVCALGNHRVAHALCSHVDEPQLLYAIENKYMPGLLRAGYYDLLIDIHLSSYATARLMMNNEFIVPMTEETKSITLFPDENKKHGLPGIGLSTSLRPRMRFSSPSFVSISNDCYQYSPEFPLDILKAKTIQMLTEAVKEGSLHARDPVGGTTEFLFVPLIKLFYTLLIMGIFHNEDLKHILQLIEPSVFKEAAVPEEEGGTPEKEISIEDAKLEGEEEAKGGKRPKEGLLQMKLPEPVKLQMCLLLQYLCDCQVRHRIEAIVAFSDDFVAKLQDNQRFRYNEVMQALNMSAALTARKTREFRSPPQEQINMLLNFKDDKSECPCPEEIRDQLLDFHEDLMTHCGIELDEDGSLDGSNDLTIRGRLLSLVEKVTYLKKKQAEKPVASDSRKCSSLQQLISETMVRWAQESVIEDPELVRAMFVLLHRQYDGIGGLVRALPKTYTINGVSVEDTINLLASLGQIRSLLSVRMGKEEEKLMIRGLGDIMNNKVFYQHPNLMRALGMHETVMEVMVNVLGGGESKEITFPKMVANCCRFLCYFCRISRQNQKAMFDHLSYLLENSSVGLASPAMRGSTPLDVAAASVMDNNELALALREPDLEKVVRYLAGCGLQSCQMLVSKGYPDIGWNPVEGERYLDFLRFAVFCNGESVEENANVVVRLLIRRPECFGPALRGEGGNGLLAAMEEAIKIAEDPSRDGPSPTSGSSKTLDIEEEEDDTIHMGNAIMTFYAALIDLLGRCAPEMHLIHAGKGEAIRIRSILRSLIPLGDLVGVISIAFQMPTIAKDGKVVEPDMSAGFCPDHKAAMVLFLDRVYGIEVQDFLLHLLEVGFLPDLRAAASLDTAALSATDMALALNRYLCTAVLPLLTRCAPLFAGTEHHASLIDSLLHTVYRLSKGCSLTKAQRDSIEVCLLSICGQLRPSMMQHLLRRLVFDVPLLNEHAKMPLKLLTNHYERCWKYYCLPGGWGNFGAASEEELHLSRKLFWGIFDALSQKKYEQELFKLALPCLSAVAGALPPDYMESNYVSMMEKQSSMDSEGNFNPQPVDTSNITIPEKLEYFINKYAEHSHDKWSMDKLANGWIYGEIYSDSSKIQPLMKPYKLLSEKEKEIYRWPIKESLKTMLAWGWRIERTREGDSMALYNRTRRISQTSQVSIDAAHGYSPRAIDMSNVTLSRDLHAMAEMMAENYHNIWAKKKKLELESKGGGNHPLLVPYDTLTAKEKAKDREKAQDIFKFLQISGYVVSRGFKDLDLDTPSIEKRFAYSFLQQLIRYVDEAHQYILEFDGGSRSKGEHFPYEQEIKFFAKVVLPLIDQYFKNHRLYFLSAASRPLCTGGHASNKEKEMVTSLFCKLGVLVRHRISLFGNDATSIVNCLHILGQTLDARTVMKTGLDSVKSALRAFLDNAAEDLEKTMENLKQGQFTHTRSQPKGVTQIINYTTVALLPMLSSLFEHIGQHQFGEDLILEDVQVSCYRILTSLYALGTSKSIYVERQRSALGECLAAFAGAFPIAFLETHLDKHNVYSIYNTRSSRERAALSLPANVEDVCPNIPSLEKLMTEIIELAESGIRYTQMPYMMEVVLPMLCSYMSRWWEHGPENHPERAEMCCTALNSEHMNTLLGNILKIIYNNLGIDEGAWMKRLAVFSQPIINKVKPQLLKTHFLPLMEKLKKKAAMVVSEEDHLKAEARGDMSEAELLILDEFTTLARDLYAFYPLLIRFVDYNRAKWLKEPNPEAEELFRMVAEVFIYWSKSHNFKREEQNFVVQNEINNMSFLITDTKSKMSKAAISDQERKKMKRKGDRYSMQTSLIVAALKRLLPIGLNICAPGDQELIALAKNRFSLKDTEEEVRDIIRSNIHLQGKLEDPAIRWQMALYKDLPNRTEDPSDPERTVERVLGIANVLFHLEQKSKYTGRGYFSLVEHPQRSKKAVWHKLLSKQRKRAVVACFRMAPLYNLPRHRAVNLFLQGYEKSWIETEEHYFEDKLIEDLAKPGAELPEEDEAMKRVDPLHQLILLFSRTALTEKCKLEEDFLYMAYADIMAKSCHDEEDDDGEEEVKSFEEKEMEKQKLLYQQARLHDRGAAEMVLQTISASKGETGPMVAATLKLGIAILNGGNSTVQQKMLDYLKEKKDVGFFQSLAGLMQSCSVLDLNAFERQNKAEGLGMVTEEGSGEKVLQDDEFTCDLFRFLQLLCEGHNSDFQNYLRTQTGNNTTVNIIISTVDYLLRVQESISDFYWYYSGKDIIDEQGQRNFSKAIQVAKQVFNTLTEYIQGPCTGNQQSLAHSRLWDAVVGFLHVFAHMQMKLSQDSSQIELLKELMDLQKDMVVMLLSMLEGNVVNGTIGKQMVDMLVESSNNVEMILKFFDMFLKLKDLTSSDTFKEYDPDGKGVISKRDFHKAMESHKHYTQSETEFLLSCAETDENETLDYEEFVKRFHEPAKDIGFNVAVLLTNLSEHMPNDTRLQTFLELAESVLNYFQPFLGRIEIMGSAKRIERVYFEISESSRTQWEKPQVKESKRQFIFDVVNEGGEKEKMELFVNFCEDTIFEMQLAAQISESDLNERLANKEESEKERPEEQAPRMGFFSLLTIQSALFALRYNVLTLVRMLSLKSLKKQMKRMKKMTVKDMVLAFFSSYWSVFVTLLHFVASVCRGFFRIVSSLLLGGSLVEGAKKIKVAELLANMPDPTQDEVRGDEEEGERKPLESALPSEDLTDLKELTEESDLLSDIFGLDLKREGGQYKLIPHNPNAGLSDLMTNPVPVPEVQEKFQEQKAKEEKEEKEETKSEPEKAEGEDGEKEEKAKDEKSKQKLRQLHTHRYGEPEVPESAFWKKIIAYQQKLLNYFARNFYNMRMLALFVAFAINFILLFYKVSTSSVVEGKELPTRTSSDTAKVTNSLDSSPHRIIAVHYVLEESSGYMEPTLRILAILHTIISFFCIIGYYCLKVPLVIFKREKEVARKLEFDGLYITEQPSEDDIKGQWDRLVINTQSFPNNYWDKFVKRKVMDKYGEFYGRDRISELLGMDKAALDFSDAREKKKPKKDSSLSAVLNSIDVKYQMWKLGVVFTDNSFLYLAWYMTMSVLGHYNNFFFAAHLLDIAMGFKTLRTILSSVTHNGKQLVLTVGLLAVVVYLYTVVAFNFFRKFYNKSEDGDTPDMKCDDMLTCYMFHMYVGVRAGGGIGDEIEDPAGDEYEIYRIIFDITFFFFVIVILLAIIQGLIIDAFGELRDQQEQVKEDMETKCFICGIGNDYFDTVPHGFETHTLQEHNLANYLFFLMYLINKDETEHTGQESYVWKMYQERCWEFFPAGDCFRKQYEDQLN

In the case of `CC(C)C1(O)C(OC(=O)c2ccc[nH]2)C2(O)C3(C)CC4(O)OC5(CC(O)CCC35O)C2(O)C41C` (stereo not given), the Relative activity came out at 0.4.
Turning to `CC(C)C1(O)C(OC(=O)c2ccc[nH]2)C2(O)C3(C)CC4(O)OC5(CCCCC35O)C2(O)C41C` (stereo not given), the Relative activity is 18.
Turning to `CC1CCC2(O)C3(C)CC4(O)OC2(C1N)C1(O)C3(O)C(OC(=O)c2ccc[nH]2)C(O)(C(C)C)C41C` (stereo not given), the Relative activity came out at 65.
Under `CO/N=C1\C(C)CCC2(O)C3(C)CC4(O)OC12C1(O)C3(O)C(OC(=O)c2ccc[nH]2)C(O)(C(C)C)C41C` (stereo not given) stands 13; under `C=C1CCC2(O)C3(C)CC4(O)OC2(C1OC(=O)c1ccccc1)C1(O)C3(O)C(OC(=O)c2ccc[nH]2)C(O)(C(C)C)C41C` (stereo not given), 17.

The values are drawn from ChEMBL document CHEMBL1129336, “Ryanodine action at calcium release channels. 2. relation to substituents of the cyclohexane ring” (J Med Chem, 1996).
